One test addresses human P2X7 (Homo sapiens (Human), UniProt Q99572). Kind of test: P2X7 antagonism in human PBMCs (IL-1β release after LPS + Bz-ATP, ELISA). As to conditions: 10 μM test compound, human PBMCs, LPS + Bz-ATP. The class given is cell-based.
Sequence of human P2X7 (Q99572 whole entry): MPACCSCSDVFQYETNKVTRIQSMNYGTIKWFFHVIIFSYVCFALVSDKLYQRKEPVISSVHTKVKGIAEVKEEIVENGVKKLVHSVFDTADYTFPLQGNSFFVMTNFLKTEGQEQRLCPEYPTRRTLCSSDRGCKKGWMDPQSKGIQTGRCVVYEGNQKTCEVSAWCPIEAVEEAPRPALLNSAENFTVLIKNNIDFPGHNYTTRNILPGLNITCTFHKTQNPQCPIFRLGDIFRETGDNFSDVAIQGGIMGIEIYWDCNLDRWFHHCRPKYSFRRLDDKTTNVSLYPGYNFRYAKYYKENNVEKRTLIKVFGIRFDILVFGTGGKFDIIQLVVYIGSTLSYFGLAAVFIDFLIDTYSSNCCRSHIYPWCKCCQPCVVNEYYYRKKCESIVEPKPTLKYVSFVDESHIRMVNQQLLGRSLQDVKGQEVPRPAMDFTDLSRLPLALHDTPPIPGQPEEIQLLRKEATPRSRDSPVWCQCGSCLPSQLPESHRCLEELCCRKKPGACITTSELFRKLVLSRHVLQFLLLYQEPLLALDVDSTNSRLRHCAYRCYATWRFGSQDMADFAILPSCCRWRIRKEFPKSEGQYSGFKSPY
As to `CCn1ccc(-n2nnc3c2C[C@H](C)N(C(=O)c2cccc(C(F)(F)F)c2Cl)C3)n1` [Example 404, (S)-(2-chloro-3-(trifluoromethyl)phenyl)(1-(1-ethyl-1H-pyrazol-3-yl)-6-methyl-6,7-dihydro-1H-[1,2,3]triazolo[4,5-c]pyridin-5(4H)-yl)methanone], the “PBMC 10 μM (% control)” value is −3.1 % control.

On to `CCn1nccc1-n1nnc2c1C[C@H](C)N(C(=O)c1cccc(C(F)(F)F)c1Cl)C2` [Example 406, (S)-(2-chloro-3-(trifluoromethyl)phenyl)(1-(1-ethyl-1H-pyrazol-5-yl)-6-methyl-6,7-dihydro-1H-[1,2,3]triazolo[4,5-c]pyridin-5(4H)-yl)methanone], for which the “PBMC 10 μM (% control)” value is listed as −3.6 % control.

Consider `CCn1nccc1-n1nnc2c1CCN(C(=O)c1cccc(C(F)(F)F)c1Cl)[C@H]2C` [Example 407, (S)-(2-chloro-3-(trifluoromethyl)phenyl)(1-(1-ethyl-1H-pyrazol-5-yl)-4-methyl-6,7-dihydro-1H-[1,2,3]triazolo[4,5-c]pyridin-5(4H)-yl)methanone], for which the “PBMC 10 μM (% control)” value was 77.4 % control.

Consider `CCn1ccc(-n2nnc3c2C[C@H](C)N(C(=O)c2ccnc(C(F)(F)F)c2F)C3)n1` [Example 408, (S)-(1-(1-ethyl-1H-pyrazol-3-yl)-6-methyl-6,7-dihydro-1H-[1,2,3]triazolo[4,5-c]pyridin-5(4H)-yl)(3-fluoro-2-(trifluoromethyl)pyridin-4-yl)methanone], for which the “PBMC 10 μM (% control)” value was 53.6 % control.

As to `CCn1ccc(-n2nnc3c2C[C@H](C)N(C(=O)c2ccnc(C(F)(F)F)c2Cl)C3)n1` [Example 410, (S)-(3-chloro-2-(trifluoromethyl)pyridin-4-yl)(1-(1-ethyl-1H-pyrazol-3-yl)-6-methyl-6,7-dihydro-1H-[1,2,3]triazolo[4,5-c]pyridin-5(4H)-yl)methanone], the “PBMC 10 μM (% control)” value was −1.5 % control.

`CCn1ccc(-n2nnc3c2CCN(C(=O)c2ccnc(C(F)(F)F)c2Cl)[C@H]3C)n1` [Example 411, (S)-(3-chloro-2-(trifluoromethyl)pyridin-4-yl)(1-(1-ethyl-1H-pyrazol-3-yl)-4-methyl-6,7-dihydro-1H-[1,2,3]triazolo[4,5-c]pyridin-5(4H)-yl)methanone]: the “PBMC 10 μM (% control)” value was found to be 69.6 % control.

As for `CC(C)n1ccc(-n2nnc3c2CCN(C(=O)c2cccc(C(F)(F)F)c2Cl)[C@H]3C)n1` [Example 413, (S)-(2-chloro-3-(trifluoromethyl)phenyl)(1-(1-isopropyl-1H-pyrazol-3-yl)-4-methyl-6,7-dihydro-1H-[1,2,3]triazolo[4,5-c]pyridin-5(4H)-yl)methanone], the “PBMC 10 μM (% control)” value was determined as 68.5 % control.

Regarding `CC(C)n1ccc(-n2nnc3c2CCN(C(=O)c2ccnc(C(F)(F)F)c2Cl)[C@H]3C)n1` [Example 417, (S)-(3-chloro-2-(trifluoromethyl)pyridin-4-yl)(1-(1-isopropyl-1H-pyrazol-3-yl)-4-methyl-6,7-dihydro-1H-[1,2,3]triazolo[4,5-c]pyridin-5(4H)-yl)methanone], the “PBMC 10 μM (% control)” value amounted to 112.2 % control.

The same test, now with this note: human PBMCs, test compound 1 μM.
Take `Cn1nc2c(c1-c1ccc(F)cc1)CCN(C(=O)c1cccc(Cl)c1Cl)C2` [Example 326, (2,3-dichlorophenyl)(3-(4-fluorophenyl)-2-methyl-4,5-dihydro-2H-pyrazolo[3,4-c]pyridin-6(7H)-yl)methanone]: the “PBMC 1 μM (% control)” value was found to be 92.0 % control.

On to `Cn1nc2c(c1-c1ccncc1)CCN(C(=O)c1cccc(Cl)c1Cl)C2` [Example 328, (2,3-dichlorophenyl)(2-methyl-3-(pyridin-4-yl)-4,5-dihydro-2H-pyrazolo[3,4-c]pyridin-6(7H)-yl)methanone], for which the “PBMC 1 μM (% control)” value was 88.0 % control.

Still in this test, the particulars now being: human PBMCs, test compound 10 μM.
As for `C[C@@H]1Cc2c(nnn2-c2ccn[nH]2)[C@H](C)N1C(=O)c1cccc(C(F)(F)F)c1Cl` [Example 309, (2-chloro-3-(trifluoromethyl)phenyl)((4S,6R)-4,6-dimethyl-1-(1H-pyrazol-5-yl)-6,7-dihydro-1H-[1,2,3]triazolo[4,5-c]pyridin-5(4H)-yl)methanone], the “PBMC 10 μM (% control)” value turned out to be 1.4 % control.

`O=C(c1cccc(C(F)(F)F)c1Cl)N1CCc2c(ncn2-c2ccc(F)cn2)C1` [Example 315, (2-chloro-3-(trifluoromethyl)phenyl)(1-(5-fluoropyridin-2-yl)-6,7-dihydro-1H-imidazo[4,5-c]pyridin-5(4H)-yl)methanone]: the “PBMC 10 μM (% control)” value was 8.8 % control.

Take `C[C@H]1Cc2c(nnn2-c2ccn[nH]2)[C@H](C)N1C(=O)c1cccc(C(F)(F)F)c1Cl` [Example 319, (2-chloro-3-(trifluoromethyl)phenyl)((4S,6S)-4,6-dimethyl-1-(1H-pyrazol-5-yl)-6,7-dihydro-1H-[1,2,3]triazolo[4,5-c]pyridin-5(4H)-yl)methanone]: the “PBMC 10 μM (% control)” value is listed as −6.8 % control.

As to `Cc1nc2c(n1-c1ccccc1)CCN(C(=O)c1cccc(Cl)c1Cl)C2` [Example 331, (2,3-dichlorophenyl)(2-methyl-1-phenyl-6,7-dihydro-1H-imidazo[4,5-c]pyridin-5(4H)-yl)methanone], the “PBMC 10 μM (% control)” value is −11.0 % control.

For `CCc1nc2c(n1-c1ccccc1)CCN(C(=O)c1cccc(Cl)c1Cl)C2` [Example 332, (2,3-dichlorophenyl)(2-ethyl-1-phenyl-6,7-dihydro-1H-imidazo[4,5-c]pyridin-5(4H)-yl)methanone], the “PBMC 10 μM (% control)” value is reported as −9.5 % control.

With `C[C@H]1c2nnn(-c3cncnc3)c2CCN1C(=O)c1cccc(C(F)(F)F)c1Cl` [Example 333, (S)-(2-chloro-3-(trifluoromethyl)phenyl)(4-methyl-1-(pyrimidin-5-yl)-6,7-dihydro-1H-[1,2,3]triazolo[4,5-c]pyridin-5(4H)-yl)methanone], the “PBMC 10 μM (% control)” value is listed as 6.9 % control.

With `Cc1ccc(-n2nnc3c2CCN(C(=O)c2cccc(Cl)c2Cl)C3C)nc1` (centres unmarked) [Example 336, (2,3-dichlorophenyl)(4-methyl-1-(5-methylpyridin-2-yl)-6,7-dihydro-1H-[1,2,3]triazolo[4,5-c]pyridin-5(4H)-yl)methanone], the “PBMC 10 μM (% control)” value was −0.5 % control.

Consider `Cc1ccnc(-n2nnc3c2CCN(C(=O)c2ccnc(C(F)(F)F)c2Cl)C3C)c1` (centres unmarked) [Example 358, (3-chloro-2-(trifluoromethyl)pyridin-4-yl)(4-methyl-1-(4-methylpyridin-2-yl)-6,7-dihydro-1H-[1,2,3]triazolo[4,5-c]pyridin-5(4H)-yl)methanone], for which the “PBMC 10 μM (% control)” value is given as −0.7 % control.

With `Cc1cc(-n2nnc3c2CCN(C(=O)c2ccnc(C(F)(F)F)c2F)C3C)ncn1` (centres unmarked) [Example 397, (3-fluoro-2-(trifluoromethyl)pyridin-4-yl)(4-methyl-1-(6-methylpyrimidin-4-yl)-6,7-dihydro-1H-[1,2,3]triazolo[4,5-c]pyridin-5(4H)-yl)methanone], the “PBMC 10 μM (% control)” value is recorded as 64.7 % control.

As to `Cc1nccc(-n2nnc3c2CCN(C(=O)c2ccnc(C(F)(F)F)c2F)C3C)n1` (centres unmarked) [Example 401, (3-fluoro-2-(trifluoromethyl)pyridin-4-yl)(4-methyl-1-(2-methylpyrimidin-4-yl)-6,7-dihydro-1H-[1,2,3]triazolo[4,5-c]pyridin-5(4H)-yl)methanone], the “PBMC 10 μM (% control)” value was 82.0 % control.

The record behind these values is US10112937B2, “P2X7 modulators and methods of use” (Janssen Pharmaceutica NV, priority 2013, dated 2018).
